Experimental data reported in patent US5387578A (priority 1990, dated 1995).

What was measured:
[1] = test system: LoVo-Doxo-resistant (LoVo/DX) cells; format: cell-based; conditions: human, lovo/dx vs lovo cells, 240 min
[2] = Release of 13b from conjugates in acetate buffer at 37° C.; format: physicochemical; conditions: pH 5, 37° C., ionic strength 0.05M, HPLC
Experimental: In Table 4 are reported t50 % of release of 3'deamino-3'[2(S) -methoxy-4-morpholinyl]doxorubicin (13b) from the conjugates at […] (acetate buffer) at 37° C.
Release of 13b from conjugates at pH 5 and
temperature 37° C. in acetate buffer^(7).
^(6) Time requests for the release of 50% of free drug 13b. Determine
by HPLC using a calibration curve of compound 13b.
^(7) Ionic strenght 0.05M.

| Compound | R.I. = Resistance Index = (IC50 LoVo/DX)/(IC50 LoVo) [1] | t50% (time for the release of 50% of free drug 13b) [2] |
| --- | --- | --- |
| COc1cccc2c1C(=O)c1c(O)c3c(c(O)c1C2=O)C[C@@](O)(C(=O)CO)C[C@@H]3O[C@H]1C[C@H](N2CCO[C@H](OC)C2)[C@H](O)[C@H](C)O1 [Compound 13b] | 2 | – |
| COc1cccc2c1C(=O)c1c(O)c3c(c(O)c1C2=O)C[C@@](O)(C(=O)CO)C[C@@H]3O[C@H]1C[C@H](N)[C@H](O)[C@H](C)O1 [Doxorubicin] | 36.3 | – |
| conjugate of Poly(Glu-Na, Ala.Tyr) (1:1:1) and 14-O-(1-piperazinocarbonylmethyloxy-cyclohexyl)-3'-deamino[2(S)-methoxy-4- morpholinyl]doxorubicin [1^viii] | – | 3.5 h |
| copolymer of 3-methacryloylamino-2-hydroxypropane and 14-O-{1-[4-(6-methacryloylaminocaproyl)piperazinlyl]-carbonylmethyloxy-cyclohexyl}-3'-deamino-3'[2(S)-methoxy-4-morpholinyl]doxorubicin [1^vii] | – | 20 h |
